Target: T1, α3β4 nicotinic receptor subtype expressed in Xenopus oocytes (Rattus norvegicus, UniProt P04757+P12392)
T1 construct: expressed in transfected cells; host or cells: Xenopus laevis oocytes injected with subunit cRNAs
Assay: Inhibition of ACh evoked current through nicotinic receptors expressed in Xenopus oocytes (α3β4)
Format: cell-based
Settings: co-application with acetylcholine; FIG. 2
Experimental: Rat nicotinic receptor cDNAs clones were linearized and purified, and RNA transcripts were prepared in vitro using the appropriate mMessage mMachine kit. Mature (>9 cm) female Xenopus laevis African toads (Nasco, Ft. Atkinson, Wis.), housed in the Division of Lab Animal Resources at the University of Florida were used as a source of oocytes. Prior to surgery, frogs were anesthetized by placing the animal in a 1.5 g/L solution of MS222 for 30 minutes. Oocytes were removed from an incision made in the abdomen. […]
Each oocyte received two initial control applications of ACh, then a nicotine or analog application, and then a follow-up control application of ACh. […] Responses to each nicotine or analog application were calculated relative to the preceding ACh control responses in order to normalize the data, compensating for the varying levels of channel expression among the oocytes. […] Responses for α7 receptors were calculated as net charge (Papke et al., 2002). For subtypes other than α7, responses were calculated from the peak current amplitudes. Means and standard errors (SEM) were calculated from the normalized responses of at least four oocytes for each drug concentration. […]
For concentration-response relations, data derived from net-charge analyses were plotted using Kaleidagraph 3.0.2 (Abelbeck Software; Reading, Pa.) and curves were generated from the Hill equation […]

T1 sequence (P12392 21-495): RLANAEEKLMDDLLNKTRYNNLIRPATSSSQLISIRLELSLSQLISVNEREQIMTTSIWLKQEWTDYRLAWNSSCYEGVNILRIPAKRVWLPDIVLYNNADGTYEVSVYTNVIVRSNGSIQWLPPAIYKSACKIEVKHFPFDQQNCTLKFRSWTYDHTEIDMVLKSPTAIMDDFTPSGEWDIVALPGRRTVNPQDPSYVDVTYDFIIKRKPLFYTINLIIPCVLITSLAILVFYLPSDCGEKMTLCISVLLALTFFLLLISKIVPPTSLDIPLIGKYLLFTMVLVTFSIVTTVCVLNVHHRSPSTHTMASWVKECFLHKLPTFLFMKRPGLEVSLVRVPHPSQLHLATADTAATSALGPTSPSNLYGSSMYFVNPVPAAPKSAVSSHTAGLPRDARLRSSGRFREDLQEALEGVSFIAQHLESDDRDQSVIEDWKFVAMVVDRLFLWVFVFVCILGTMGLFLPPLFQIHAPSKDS
T1 sequence (P04757 26-499): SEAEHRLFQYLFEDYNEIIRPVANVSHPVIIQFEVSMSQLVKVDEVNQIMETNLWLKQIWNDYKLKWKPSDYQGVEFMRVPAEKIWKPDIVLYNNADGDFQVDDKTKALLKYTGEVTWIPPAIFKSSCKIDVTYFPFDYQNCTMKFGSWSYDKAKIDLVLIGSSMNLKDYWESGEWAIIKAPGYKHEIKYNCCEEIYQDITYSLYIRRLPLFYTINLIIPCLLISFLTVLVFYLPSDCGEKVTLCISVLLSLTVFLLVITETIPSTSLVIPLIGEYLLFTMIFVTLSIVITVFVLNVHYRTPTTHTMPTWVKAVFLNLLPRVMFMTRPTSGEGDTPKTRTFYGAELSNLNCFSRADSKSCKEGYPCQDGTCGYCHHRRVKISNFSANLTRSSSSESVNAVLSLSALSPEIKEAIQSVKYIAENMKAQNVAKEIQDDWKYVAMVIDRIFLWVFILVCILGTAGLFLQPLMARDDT

CN1CCC[C@H]1c1ccc[n+](CCCC#Cc2cc(C#CCCC[n+]3cccc([C@@H]4CCCN4C)c3)cc(C#CCCC[n+]3cccc([C@@H]4CCCN4C)c3)c2)c1 [GZ551B, 1,3,5-tris-{5-[3-(1-methyl-2-S-pyrrolidinyl)pyridinium]-pent-1-ynyl}-benzene tribromide]
inhibition of ACh response at α3β4 nicotinic receptor subtype (in words): potently inhibited
